Measured values taken from ChEMBL document CHEMBL6127139, “Lysine-Targeted Covalent Inhibitors of PI3Kδ Synthesis and Screening by In Situ Interaction Upgradation” (J Med Chem, 2024).

Tests used:
[1] = test system: MCF7; assay: Growth inhibition of human MCF7 cells incubated for 72 hrs by MTT assay; format: functional
[2] = Toxicity in male nude mouse xenografted with human Pfeiffer cells assessed as change in body weight at 5 to 30 mg/kg/day, po administered for 14 days; format: organism-based; details: in vivo, 336 h, dose 5-30 mg/kg/day, time 14 day
[3] = Toxicity in male nude mouse xenografted with human SU-DHL-6 cells assessed as change in body weight at 5 to 30 mg/kg/day, po administered for 14 days; format: organism-based; details: in vivo, 336 h, dose 5-30 mg/kg/day, time 14 day
[4] = test system: SU-DHL-6; assay: Antitumor activity against human SU-DHL-6 cells xenografted in male nude mouse assessed as tumor growth inhibition at 5 mg/kg/day, po administered for 14 days relative to control; format: functional; details: SU-DHL-6, 336 h, time 14 day, read-out: TGI
[5] = test system: Pfeiffer; assay: Antitumor activity against human Pfeiffer cells xenografted in male nude mouse assessed as tumor growth inhibition at 5 mg/kg/day, po administered for 14 days relative to control; format: functional; details: 336 h, time 14 day, read-out: TGI

GI50 [1]: > 10 µM
Structure (SMILES): COc1ncc(-c2ccc3ncnc(N[C@H]4CCN(C(=O)C5CCOCC5)C4)c3n2)cc1C(=O)Oc1ccccc1
Activity [2]: Non-Toxic
Activity [3]: Non-Toxic
inhibition in vivo at 5 mg/kg/day [4]: 84%
inhibition in vivo at 5 mg/kg/day [5]: 44%
